Measured values published in patent publication US12371472B2, “Multimeric IL-15 soluble fusion molecules and methods of making and using same” (Altor BioScience, LLC., priority 2010, dated 2025).
pEC50, pKd: −log10 of the molar value. Read-outs that look alike come from different tables or passages of the source.

Assays:
[1] = molecular target: IL-15Rα; conditions: cited from earlier work
[2] = system: NK cells and CD8 T-cells; assay: Immunostimulatory activity in C57BL/6 mice (NK cells, CD8 T cells, WBC, spleen weight); assay type: in vivo
Procedure: Changes in the percentage of peripheral blood mononuclear cells (PBMC) CD8^+ and NKp46^+ cells were assessed flow cytometry as shown in FIG. 48B. PBMCs were also used to assess NK cell activity based on lysis of NK-sensitive Yac-1 target cells in a calcein release assay as shown in FIG. 48C.
On study day 4, the percentage of PBMC CD8^+ and NKp46^+ cells were assessed by flow cytometry (FIG. 49A). Nude mice were treated i.v. with IL15N72D/IL15Rα-Fc (0.2 mg/kg) or T2M2 (2 mg/kg) of study day 1. On day 4 and 7 post treatment, the percentage of PBMC NKp46^+ cells was assessed by flow cytometry (FIG. 49B). […]
Mice were i.v. injected on day 1 and 4 with the fusion proteins at an amount equivalent to a 2.5 μg dose of IL-15. On day 8, blood cells and splenocytes were collected, stained for CD8 T-cells and NK cells, and analyzed by flow cytometry. […]
C57BL/6 mice (male, 6 wks of age, Harlan, Indianapolis, IN) were injected intravenously with a single dose of IL-15N72D:IL-15RαSu/Fc fusion complex (Alt-803) at 1 mg/kg or human IL-15 wt at 0.28 mg/kg (molar equivalent dose), respectively, or PBS as a negative control. […] The stained cells were analyzed on a FACScan flow cytometer (BD Bioscience, San Jose, CA). […]

[3] = system: murine EG7-OVA lymphoma; assay: EG7-OVA lymphoma primary subcutaneous tumor growth in C57BL/6 mice (Example 27); assay type: in vivo; conditions: ALT-803 0.415 or 0.83 mg/kg, rhIL-15 0.06 mg/kg, four i.v. injections
Procedure: To evaluate the effect of ALT-803 when administered via intravenous (i.v.) injection in multi-dose regimen on primary subcutaneous tumor growth of murine EG7-OVA lymphoma in C57BL/6 mice the following studies were carried out. Four treatment groups, ALT-803 (0.415 and 0.83 mg/kg), recombinant human interleukine-15 (rhIL-15, 0.06 mg/kg) and PBS (control), were examined in the study (Table 1). Female C57BL/6 mice (8-10 weeks old) were injected subcutaneously (s.c.) with EG7-OVA (1×10^6 cells in 100 μl PBS) on study day (SD) 0. PBS (n=5), rhIL-15 (n=5) or ALT-803 (n=5) were administered i.v. on SD 1, 4, 8, and 11 post EG7-OVA tumor cell injection. Tumors (width and length) were measured over the course of study. Tumor volume was the primary end point of the study.
Female C57BL/6 mice were injected s.c. with EG7-OVA (1×10^6 cells/mouse) on study day 0. […] During the study, mouse body weight and tumor width and length were measured and recorded.
The length (mm) and width (mm) of the tumors were measured and recorded. […]
Data were analyzed by ANOVA using GraphPad Prism Version 4.03. […] Tumor growth inhibition (TGI) was calculated using the following equation: TGI (%)=(Vcontrol−Vtreated)/Vcontrol×100, where Vcontrol is the mean tumor volume of mice from the PBS or rhIL-15 treatment control, and Vtreated is the mean tumor volume of mice receiving test article treatment.

[4] = system: human p53+ HLA-A2+ A375 melanoma cell line; conditions: vs PBS; for effect on s.c. A375 tumor xenografts: Example 17, i.v., equivalent molar doses
Procedure: A375 human melanoma tumor cells (1×10^6) were injected s.c. into nude mice (5-6/group). […] The mice were treated three times a week for three weeks starting on study day 11 (FIG. 50A). A375-tumor bearing nude mice were also treated i.v. with 4 mg/kg T2M as in FIG. 50A (FIG. 50B). A375 tumor bearing nude mice were i.v. with equivalent molar doses of IL-15 (0.2 mg/kg), T2M2 (2 mg/kg) or PBS (FIG. 50C). Tumors were measured every other day and tumor volumes (mean±SEM) were plotted.
To determine the therapeutic effects of the T2 protein, we examined antitumor activity in a primary tumor growth model with the human p53+ HLA-A2+A375 melanoma cell line in nude mice. Tumor cells were injected subcutaneously into nude mice and tumors were allowed to grow to 100 mm 3 before treatment began. […] The mice were treated every other day for one week (3 injections) followed by a 9 day rest period and then every other day for an additional week (3 injections). During the study, tumor growth was measured and the tumor volumes were plotted (FIG. 27).
The antitumor activity of these complexes was further examined in the subcutaneous A375 xenograft model in nude mice.

[5] = system: 5T33P myeloma cells; assay: 5T33P murine myeloma model; conditions: single i.v. ALT-803 0.2 mg/kg or molar equivalent IL-15, well-established tumors, four days after treatment
Procedure: BM cells were collected 4 days after study drug treatments. […] The plotted values represent the mean±SE; P values are presented. […] Female C57BL/6NHsd mice (n=5/group) were injected i.v. with murine 5T33P myeloma cells (1×10^7 cells/mouse) on day 0. […] Control mice were treated with PBS on day 4. Survival (or morbidity due to hind leg paralysis) was monitored as a study endpoint. […] Five treatment-naïve mice were also administered 5T33P cells (1×10^7) on day 93 as a control for tumor development.
Tumor-bearing mice were monitored daily for hind leg paralysis, signs of overt disease progression and mortality.
Levels of BM myeloma cells and hind leg paralysis or survival were assessed as study endpoints.
Control mice received PBS (0.2 mL).

[6] = system: 32Dβ cells; conditions: as disclosed in WO2008143794; cited from earlier work
[7] = system: 32Dβ cells; assay: 32Dβ cell proliferation assay (WST-1), IL-15 biological activity; assay type: cell-based; conditions: hIL-15 wild-type domain, 48 h; read-out: half-maximal stimulation (EC50)
Procedure: The biological activity of the IL-15 domain of the T2 molecules was further characterized in proliferation assays using the cytokine-dependent 32Dβ cell line. […] Cell proliferation reagent WST-1 (Roche Applied Science) was added during the last 4 h of cell growth according to the manufacturer's procedures. Conversion of WST-1 to the colored formazan dye by metabolically active cells was determined through absorbance measurements at 440 nm.
Cell proliferation assays—Cell proliferation was measured as previously described (25). Briefly, 32Dβ cells (1×10^5 cells/well) were incubated with increasing concentrations of scTCR/hIL-15 or scTCR/hIL-15 muteins in the presence or absence of an equal molar concentration of scTCR/hIL-15RαSu for 48 h at 37° C. Cell proliferation reagent WST-1 (Roche Applied Science, Indianapolis, IN) was added during the last 4 h of cell growth according to the manufacturer's procedures. Conversion of WST-1 to the colored formazan dye by metabolically active cells was determined through absorbance measurements at 440 nm. The EC50 was determined with the dose-response curve generated from the experimental data by nonlinear regression variable slope curve-fitting with Prizm4 software (GraphPad Software, La Jolla, CA). […]

[8] = system: p53 (aa264-272)/HLA-A2.1; assay: Flow cytometry staining of p53 (aa264-272) peptide-loaded HLA-A2-positive T2 cells; assay type: binding, human; conditions: 320 nM dimeric complex; vs c264scTCR/huIL15+c264scTCR/huIL15RαSushi complex
Procedure: The fusion protein complexes comprising IL-15 variants as described in the table immediately above were characterized for their ability to bind the TCR-specific antigen, p53 (aa264-272)/HLA-A2.1. To generate cells presenting p53 (aa264-272)/HLA-A2.1, HLA-A2.1-positive T2 cells (2×10^6/mL) were loaded with 20 μM p53 (aa264-272) peptide at 37° C. in the presence of 1×PLE (Altor Bioscience) for 2-3 hrs. T2 cells that were not incubated with peptide and 321313 cells expressing IL-2/15Rβγc serve as controls. […] These complexes were generated by incubating 160 nM of purified c264scTCRhuIL15 fusion protein and 160 nM of purified c264scTCRhuIL15Rα Sushi fusion protein at 4 C for 3 hours. Following staining, cells were washed once with washing buffer (PBS containing 0.5% BSA and 0.05% sodium azide) and stained with 0.5 μg of biotinylated mouse monoclonal anti-human TCR Cβ antibody (BF1) in 100 μL of washing buffer for 30 min at 4 C. Cells were washed once and stained with 0.5 μg of R-Phycoerythrin conjugated streptavidin in 100 μL of washing buffer for 30 min at 4 C. […]
For the OT1scTCR fusion protein complexes, murine lymphoma EL4 cells were pulsed with OVA peptide at 100 μg/ml and PLE at 37° C. for 6 h. […] The samples were washed two times and analyzed on a FACScan flow cytometer using CellQuest software (BD Biosciences, San Jose, CA). […]

[9] = molecular target: T1, IL-15Rβγc receptors (UniProt P14784+P34902); assay: IL-15Rβγc receptor binding of IL-15 variants and fusion complexes on 32Dβ cells (flow cytometry); conditions: 320 nM fusion protein complex
T1 construct: expressed in transfected cells; host or cells: 32Dβ cells
T1 sequence (P14784 27-551): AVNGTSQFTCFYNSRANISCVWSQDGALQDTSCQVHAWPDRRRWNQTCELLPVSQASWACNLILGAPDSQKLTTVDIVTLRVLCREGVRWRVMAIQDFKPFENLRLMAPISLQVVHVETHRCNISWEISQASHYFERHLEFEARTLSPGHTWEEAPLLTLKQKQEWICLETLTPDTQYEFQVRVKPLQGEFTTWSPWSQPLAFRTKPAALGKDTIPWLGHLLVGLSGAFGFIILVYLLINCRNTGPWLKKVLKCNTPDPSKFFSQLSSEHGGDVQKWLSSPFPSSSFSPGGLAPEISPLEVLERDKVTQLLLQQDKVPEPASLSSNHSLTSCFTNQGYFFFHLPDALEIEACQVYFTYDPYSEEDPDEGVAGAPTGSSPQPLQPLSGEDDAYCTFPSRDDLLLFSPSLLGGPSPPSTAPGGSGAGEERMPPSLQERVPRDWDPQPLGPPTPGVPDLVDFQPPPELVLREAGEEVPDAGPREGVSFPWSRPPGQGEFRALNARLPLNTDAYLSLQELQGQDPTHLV
T1 sequence (P34902 23-369): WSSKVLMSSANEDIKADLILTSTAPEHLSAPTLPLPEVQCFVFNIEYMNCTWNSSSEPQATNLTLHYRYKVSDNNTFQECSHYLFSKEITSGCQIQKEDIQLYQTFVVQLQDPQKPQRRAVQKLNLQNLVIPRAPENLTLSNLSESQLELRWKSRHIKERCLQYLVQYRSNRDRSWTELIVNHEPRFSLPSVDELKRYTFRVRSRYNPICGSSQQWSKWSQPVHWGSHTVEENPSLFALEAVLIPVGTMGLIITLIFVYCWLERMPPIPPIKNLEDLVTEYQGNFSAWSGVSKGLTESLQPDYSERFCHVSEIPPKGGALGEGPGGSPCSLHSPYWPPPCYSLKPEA
Procedure: The fusion protein complexes comprising IL-15 variants as described in the table immediately above were characterized for their ability to bind the TCR-specific antigen, p53 (aa264-272)/HLA-A2.1. To generate cells presenting p53 (aa264-272)/HLA-A2.1, HLA-A2.1-positive T2 cells (2×10^6/mL) were loaded with 20 μM p53 (aa264-272) peptide at 37° C. in the presence of 1×PLE (Altor Bioscience) for 2-3 hrs. T2 cells that were not incubated with peptide and 321313 cells expressing IL-2/15Rβγc serve as controls. […] These complexes were generated by incubating 160 nM of purified c264scTCRhuIL15 fusion protein and 160 nM of purified c264scTCRhuIL15Rα Sushi fusion protein at 4 C for 3 hours. Following staining, cells were washed once with washing buffer (PBS containing 0.5% BSA and 0.05% sodium azide) and stained with 0.5 μg of biotinylated mouse monoclonal anti-human TCR Cβ antibody (BF1) in 100 μL of washing buffer for 30 min at 4 C. Cells were washed once and stained with 0.5 μg of R-Phycoerythrin conjugated streptavidin in 100 μL of washing buffer for 30 min at 4 C. Cells were washed and resuspended for analysis by flow cytometry.
The binding of the proteins was in turn detected with biotinylated (BF1) 8A3.31 mAb for 15 min and SA-PE (5 μg/ml each) for 15 min. The stained cells were analyzed by flow cytometry as described above.

[10] = molecular target: TNF-α (Homo sapiens, UniProt P01375); conditions: cited from earlier work
Chain of TNF-α (P01375 77-233 limits assumed): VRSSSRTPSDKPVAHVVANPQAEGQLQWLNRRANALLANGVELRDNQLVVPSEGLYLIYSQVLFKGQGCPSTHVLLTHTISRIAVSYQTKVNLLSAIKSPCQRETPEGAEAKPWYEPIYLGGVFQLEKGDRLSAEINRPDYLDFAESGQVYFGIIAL

Chain of IL-15Rα (Q13261 31-95 limits assumed): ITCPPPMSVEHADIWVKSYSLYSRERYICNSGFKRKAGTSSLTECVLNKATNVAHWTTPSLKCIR

## IL-15: recombinant human wild-type IL-15
[1]; in solution, Bouchaud et al. 2008, read-out: Kd of complex of soluble IL-15RαSu and IL-15
  pKd: 10.00
[1]; read-out: Equilibrium dissociation constant (KD) of hIL-15 with hIL-15Rα
  pKd: ~11.00
[1]; read-out: affinity of IL-15Rα for hIL-15
  pKd: 10.42
[2]; Example 17, single i.v. dose at molar equivalent of IL-15 1 mg/kg, day 4
  WBC counts, spleen weight and blood NK and CD8+ T cell populations: little or no effect
[2]; Example 22, single i.v. dose, complex 1 mg/kg or IL-15 wt 0.28 mg/kg, four days
  expansion of NK and CD8+ T cells in blood and spleen: no significant effect
[3]
  EG7-OVA tumor growth vs PBS: significantly inhibited
[4]
  effect on s.c. A375 tumor xenografts: no effect
[5]
  reduction in BM myeloma cells compared to PBS controls: 53%

## Mutant 6: human IL-15 variant, N72D
[6]
  increase of IL-15 biological activity by the substitution: 5 to 10 fold

## c264scTCR/huIL15: c264scTCR fused to the N-terminus of hIL-15
[7]
  pEC50: ~9.52
[4]
  effect on s.c. A375 tumor xenografts: no effect

## c264scTCR/huIL15D8A+c264scTCR/huIL15Rα Sushi complex: dimeric fusion protein complex with IL-15 D8A variant
[8]
  specific staining of p53 peptide-loaded T2 cells: equivalent activity
[9]
  binding to the IL-15Rβγc receptors present on the 32Dβ cells: do not show binding activity

## c264scTCR/huIL15D8N+c264scTCR/huIL15RαSushi complex: dimeric fusion protein complex with IL-15 D8N variant
[8]
  specific staining of p53 peptide-loaded T2 cells: equivalent activity
[9]
  binding to the IL-15Rβγc receptors present on the 32Dβ cells: do not show binding activity

## c264scTCR/huIgG1: p53 (aa 264-272) single-chain TCR fused to human IgG1
[4]; Example 10, i.v. 1.6 mg/kg T2 or c264scTCR/huIL2, 3 mg/kg 264scTCR/huIgG1
  A375 tumor growth: inhibited

## etanercept
[10]
  potency at inhibiting TNF-α activity relative to monomeric sTNFR: up to 1,000 times
  serum half-life relative to the monomeric form: five-fold longer serum half-life
